Consider two molecules from US12440475B2, “Hodgkin lymphoma therapy” (priority 2016, dated 2025).

In general, pIC50 refers to the negative decadic logarithm of the IC50, by convention in mol/L.

One series deals with L1236-R100. In words: Viable cell count and IC50, bendamustine-resistant cell line. In kind it is cell-based, human. As to conditions: Homo sapiens; R100 cell line. As for the experimental part: (§1) • (a) Five Hodgkin lymphoma cell lines (KMH2, HDML2, L540, L1236 and L426) were cultured separately in the presence of bendamustine, vorinostat and EDO-S101 dissolved in DMSO at 37° C. L1236-derived Hodgkin lymphoma cell lines were selected as they have an acquired stable resistance to bendamustine (R100) or an ability to display continuous growth upon extended exposure to sub-lethal concentrations of bendamustine (R25, R50 and R75). A detailed description of the L1236-R Hodgkin lymphoma cell lines is disclosed in De Filippi et al, ASH 2015, Abstract. #2479. In these tests, the L1236-100R bendamustine resistant strain was used. […] Control cells were cultured in the same final concentration of DMSO. The number of viable cells was assessed at 24, 48 and 72 hours through a Countess™ automated cell counter (Invitrogen), each experiment being repeated three times and the results given being the mean of the three results±SD.

Series [1] deals with relapsed-refractory Hodgkin lymphoma. The settings on record: cited from earlier work.
The test system of series [2] is Hodgkin lymphoma cell lines (KMH2, HDML2, L540, L1236 and L426). In words: IC50 comparison of bendamustine, vorinostat and EDO-S101, five cell lines. The format is cell-based, human. The settings on record: Homo sapiens; range over all cell lines tested, including L1236-R. As for the experimental part: as §1
The subject of a further series is R100. In words: Combination with Brentuximab Vedotin, % survival, R100. As to conditions: Brentuximab Vedotin 0.39 μg/ml (typically 10-fold lower than IC50) with EDO-S101 1.56 μM. The format is cell-based, human. How it is done: 1.56 μM of EDO-S101 was administered to two Hodgkin lymphoma cell lines, the bendamustine naïve cell line L1236 and the bendamustine resistant cell line R100. In a second experiment, Brentuximab Vedotin was administered at a concentration of 3.12 μg/ml to the L1236 cell line and at a concentration of 0.39 μg/ml to the R100 cell line. Finally, in a third experiment EDO-S101 and Brentuximab Vedotin were administered in combination to each of the two cell lines at the same concentrations that they were administered in the monotherapy experiments.

pIC50: −log10 of the molar value.

For the molecule `Cn1c(CCCC(=O)O)nc2cc(N(CCCl)CCCl)ccc21` [bendamustine, reference compound], the pIC50 is roughly 3.85 in the series on L1236-R100 and 4.77 to 4.96 in series [2]. Further, the “patients resistant to bendamustine” value in series [1] was “about 40%”.

On to Brentuximab Vedotin, for which the “cytotoxic effect in combination with EDO-S101” value with R100 is recorded as “considerable cytotoxic effect”.
